Data published in publication PMC11878344 (Angewandte Chemie (International Ed. in English), 2025).
Where two headings read alike, the source gives them in different places.

Tests used:
human MAGL = molecular target: T1, human MAGL (Homo sapiens, UniProt Q99685); assay: In vitro MAGL inhibition assay (2-AG hydrolysis followed by mass spectrometry); type: biochemical
T1 sequence (Q99685 1-303): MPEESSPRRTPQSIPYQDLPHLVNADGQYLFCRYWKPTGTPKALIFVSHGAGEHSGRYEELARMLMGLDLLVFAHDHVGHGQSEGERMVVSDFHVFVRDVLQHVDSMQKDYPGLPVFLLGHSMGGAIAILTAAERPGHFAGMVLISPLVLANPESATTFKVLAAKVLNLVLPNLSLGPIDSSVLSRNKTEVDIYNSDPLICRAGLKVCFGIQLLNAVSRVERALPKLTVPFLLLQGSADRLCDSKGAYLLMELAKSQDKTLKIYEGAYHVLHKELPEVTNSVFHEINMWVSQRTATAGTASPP
Experimental: (§1) 4. Experimental Details of Biochemical Assays and Crystal Structure
(§2) In Vitro MAGL Inhibition Assay
(§3) Compounds were profiled for MAGL inhibitory activity by determining the enzymatic activity by following the hydrolysis of the natural substrate 2-arachidonoylglycerol (2-AG), resulting in arachidonic acid, which can be followed by mass spectrometry. The 2-AG assay was carried out in 384 well assay plates (PP, Greiner Cat# 784201) in a total volume of 20 µL. Compound dilutions were made in 100% DMSO (VWR Chemicals 23500.297) in a polypropylene plate in 3-fold dilution steps to give a final concentration range in the assay from 12.5 µM to 0.8 pM. 0.25µL compound dilutions (100% DMSO) were added to 9 µL MAGL in assay buffer (50 mM TRIS (GIBCO, 15567-027), 1 mM EDTA (Fluka, 03690-100 mL), 0.01% (v/v) Tween. After shaking, the plate was incubated for 15 min at RT. To start the reaction, 10 µL 2-arachidonoylglycerol in assay buffer was added. The final concentrations in the assay were 50 pM MAGL and 8 µM 2-arachidonoylglyerol. After shaking and 30 min incubation at RT, the reaction was quenched by the addition of 40µL of ACN containing 4 µM of d8-arachidonic acid. The amount of arachidonic acid was traced by an online SPE system (Agilent Rapidfire) coupled to a triple quadrupole mass spectrometer (Agilent 6460). A C18 SPE cartridge (G9205A) was used in an ACN/water liquid setup. The mass spectrometer was operated in negative electrospray mode following the mass transitions 303.1 → 259.1 for arachidonic acid and 311.1 → 267.0 for d8-arachidonic acid. The activity of the compounds was calculated based on the ratio of intensities [arachidonic acid / d8- […]
(§4) This assay was performed as first described before.[39] […]

mouse MAGL = molecular target: T2, mouse MAGL (Mus musculus, UniProt O35678); assay: as above; type: biochemical
T2 sequence (O35678 1-303): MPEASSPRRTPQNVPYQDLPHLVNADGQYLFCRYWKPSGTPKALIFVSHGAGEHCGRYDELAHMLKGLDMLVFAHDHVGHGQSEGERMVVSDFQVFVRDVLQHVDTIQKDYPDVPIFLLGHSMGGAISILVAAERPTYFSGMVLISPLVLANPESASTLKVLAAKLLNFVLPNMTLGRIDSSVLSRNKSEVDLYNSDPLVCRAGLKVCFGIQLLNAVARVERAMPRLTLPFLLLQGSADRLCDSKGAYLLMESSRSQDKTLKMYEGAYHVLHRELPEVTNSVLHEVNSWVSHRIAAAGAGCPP
Experimental: as §1, §2, §3, §4

[1] = molecular target: T3, NanoLuc luciferase MAGL fusion protein in HEK293A cells (Homo sapiens, UniProt Q99685); assay: Cellular MAGL NanoBRET target engagement assay; type: cell-based; conditions: Table 2; mean of three independent measurements ± SD; read-out: HEK 293 nanoBRET IC50±SD
T3 construct: expressed in transfected cells
T3 sequence (Q99685 1-303): T1 sequence (Q99685 1-303)
Experimental: We, therefore, confirmed cellular MAGL target engagement in a nanoBRET assay using live HEK293 cells.[39] […] To overcome the low cellular potency of 4, we exploited the modular construction principle to modulate unfavorable physicochemical properties and investigated less polar, privileged head groups[23, 33, 40] (Supporting Information Table S4). […]
This assay was performed as first described before.[39]
Compounds were profiled by a novel cellular MAGL NanoBRET™ Target Engagement assay, which measures the apparent affinity of test compounds by competitive displacement of a Roche-developed Tracer (WO2021058443, Example 21)[21], reversibly bound to a NanoLuc® luciferase MAGL fusion protein in cells.
A HEK293A stable cell line expressing NanoLuc_MAGL was established at Roche and assigned as HEK293A_NanoLuc_MAGL clone #43. A fixed concentration of tracer is added to cells expressing the NanoLuc®_MAGL fusion protein to generate a BRET reporter complex. The introduction of competing compounds results in a dose-dependent decrease in NanoBRET™ energy transfer, which allows quantification of the intracellular affinity of the target protein for the […]
HEK293A_NanoLuc_MAGL clone #43 cells were cultured in DMEM (Gibco 31966) with 10% FBS and 800 ug/ml G418. The NanoBRET assay was performed by seeding 5000 cells/well in Costar low-volume white 384-well plate in assay buffer (1% FBS in HBSS), followed by adding 50 nM final concentration of tracer and serial dilutions of test compounds. After 2 hours of incubation, Nanoluciferase substrates and extracellular inhibitors were added following the manufacturer's protocol (Promega, #N2520), and the NanoBRET signaling were quantified with the Paradigm

[2] = Fluorescence excitation/absorption and emission maxima; type: physicochemical; conditions: PBS pH 7.4
Description: Figure S8. Fluorescence excitation and emission spectra of the utilized fluorescent reporters in PBS pH 7.4. Spectra l differences between probes carrying the same fluorophore were […]
Table S6. Fluorescence excitation, emission maxima, and Stokes-shift in PBS pH 7.4 for the used fluorophores, respectively. difference s between probes with the same fluorophore were […]
λmax Excitation [nm] λmax Emission [nm] Stokes-shift [nm]
(1 picture or pasted object on this page, not shown here)

[3] = Table 2, mean of three independent measurements ± SD, read-out: hMAGL IC50±SD
[4] = Table 2, mean of three independent measurements ± SD, read-out: mMAGL IC50±SD

Row | Compound | IC50 (human MAGL; Supporting Information Tables S1-S5, read-out: IC50 hMAGL) [nM] | IC50 (human MAGL; [3]) [nM] | IC50 (mouse MAGL; Supporting Information Tables S1-S5, read-out: IC50 mMAGL) [nM] | IC50 (mouse MAGL; [4]) [nM] | IC50 [1] [nM] | λmax Em (fluorescence emission maximum) [2] [nm] | λmax Ex (fluorescence excitation maximum) [2] [nm]
1 | CN(C)c1ccc2c(c1)[Si](C)(C)c1cc(N(C)C)ccc1C21OC(=O)c2ccc(C(=O)NCCCCCOc3ccccc3CC3CC4(C3)CN(C(=O)N3CC5(COC(=O)N5)C3)C4)cc21 (stereo not drawn) [Compound 10] | 0.187 | 0.15 ± 0.11 | 0.155 | 0.16 ± 0.09 | 285 ± 240 | 673 | 654
2 | CN(C)c1ccc2c(c1)[Si](C)(C)c1cc(N(C)C)ccc1C21OC(=O)c2ccc(C(=O)NCCCCCOc3ccccc3CC3CC4(C3)CN(C(=O)OC(C(F)(F)F)C(F)(F)F)C4)cc21 (stereo not drawn) [Compound 12] |  | 1.15 ± 0.29 |  | 1.35 ± 0.3 | > 1000 | 673 | 654
